Legend:
[1] = target: T1, YAP-CC domain (Homo sapiens, UniProt P46937); assay: biolayer interferometry; assay type: binding; conditions: read-out: affinity
T1 construct: gene YAP1
From the text: biolayer interferometry on YAP-CC domain | a binding between paeoniflorin and the YAP-CC domain with an affinity of […]

[2] = target: T2, LgBiT-YAP-CC / SmBiT-PPM1B (Homo sapiens, UniProt P46937); assay: NanoBiT split-luciferase protein-protein interaction assay in HeLa cells; assay type: cell-based
T2 construct: gene YAP1; with Protein phosphatase 1B
T2 sequence (P46937 298-328): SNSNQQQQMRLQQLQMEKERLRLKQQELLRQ
T2 sequence (O75688 2-479 partner): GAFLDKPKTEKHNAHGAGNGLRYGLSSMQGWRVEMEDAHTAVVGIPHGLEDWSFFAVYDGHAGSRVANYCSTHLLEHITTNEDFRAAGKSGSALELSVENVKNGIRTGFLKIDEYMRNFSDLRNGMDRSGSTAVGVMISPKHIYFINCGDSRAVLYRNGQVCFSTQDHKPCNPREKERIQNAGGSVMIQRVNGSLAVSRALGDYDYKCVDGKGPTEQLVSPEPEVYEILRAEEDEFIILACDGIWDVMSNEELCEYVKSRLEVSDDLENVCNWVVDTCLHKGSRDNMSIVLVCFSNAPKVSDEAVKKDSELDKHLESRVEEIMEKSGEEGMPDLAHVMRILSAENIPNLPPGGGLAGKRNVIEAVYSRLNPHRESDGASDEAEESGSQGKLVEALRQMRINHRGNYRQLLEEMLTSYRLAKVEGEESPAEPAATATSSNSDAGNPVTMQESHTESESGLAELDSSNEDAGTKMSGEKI

T1 sequence (P46937 298-328): as the sequence (P46937 298-328) above

Kd [1]: 40.5 µM | IC50 [2]: 4.8 µM
SMILES: C[C@@]12C[C@@]3(O)O[C@@H](O1)[C@]1(COC(=O)c4ccccc4)[C@H]3C[C@@]12O[C@@H]1O[C@H](CO)[C@@H](O)[C@H](O)[C@H]1O [paeoniflorin]

— PMC11749085, “Paeoniflorin relieves arterial stiffness induced by a high-fat/high-sugar diet by disrupting the YAP-PPM1B interaction” (Life Medicine, 2023)
